Assay results taken from paper PMC4036671, “Switching and emergence of CTL epitopes in HIV-1 infection” (Retrovirology, 2014).

Tests used:
[1] = system: expanded PBMCs from 46 HIV-1 patients; assay: IFN-γ ELISpot assay using expanded PBMCs (screening of HLA-A*24:02-restricted epitopes); type: cell-based, human; conditions: for response rate: 46 HLA-A*24:02-positive HIV-1 patients, peptide 10^-5 M, overnight 16 to 18 h, positive >50 SFU per 10^6 cells; for peptide-specific response among patients with Nef135Y: eight patients with Nef135Y in plasma HIV RNA
Procedure: (§1) The gamma interferon enzyme-linked immunospot (IFN-γ ELISpot) assay was performed using patients’ PBMCs as previously described with some modifications. In brief, 96-well plates (Millipore) were coated with anti-gamma-interferon (IFN-γ) MAb 1-D1k (Mabtech) overnight at 4°C. Peptides were added directly to the wells at a final concentration of 10^-5 M. 5 ~ 10 × 10^4 cells were added to each well with a final volume of 100 μl of R10. For negative controls, PBMCs were incubated with R10 alone without peptides. After incubation at 37°C under 5% CO2 overnight (16 to 18 h), the plates were washed six times with phosphate-buffered saline containing 0.01% tween-20 (PBST). Biotinylated anti-IFN-γ MAb 7-B6-1 (Mabtech) was added, and was incubated for 2 hours at 37°C under 5% CO2. After washing with PBST, streptavidin-alkaline phosphatase conjugate (Mabtech) was added and the plates were kept at room temperature for 45 min. After washing with PBST, IFN-γ-producing cells were detected as dark spots after 10- to 20-min color reaction with 5-bromo-4-chloro-3-indolylphosphate and nitroblue tetrazolium by using AP Conjugate Substrate Kit (Bio-Rad). Spots were counted by KS ELISPOT compact (Carl Zeiss) and expressed as spot-forming units (SFU) per 10^6 PBMCs after subtracting the SFU of the negative control. Values with >50 SFU, >3 × mean SFU of negative control and > mean SFU of negative control + 3 SD per 10^6 input cells were considered as a positive response.
(§2) Since more cells were required for the immune response screening (Figure 1B) and functional avidity assays (Figures 4B and 6C), PBMCs were stimulated with anti-human CD3 antibody and the T cells were expanded for 2 to 3 weeks in R10/50 (BD Pharmingen). Culture media was changed to R10 two days prior to the assay date. For ex vivo IFN-γ ELISpot assay (Figures 5B and 6B), PBMCs were cultured for 6 hours in R10 media.

[2] = system: expanded PBMCs; assay: Longitudinal IFN-γ ELISpot assay with serially diluted peptides in one individual; type: cell-based, human; conditions: one patient; for peptide-specific IFN-γ ELISpot response, latter time point: 2003/3/20, plasma virus 133T/135F
Procedure: as §1, with “In brief, 96-well plates (Millipore) were coated with anti-gamma-interferon (IFN-γ) MAb 1-D1k (Mabtech) overnight at 4°C.” left out, “Biotinylated anti-IFN-γ MAb 7-B6-1 (Mabtech) was added, and was incubated for 2 hours at 37°C under 5% CO2.” left out
as §2

[3] = target: HLA-A*24:02 (Homo sapiens, UniProt P04439, D101N/D140Y/D185E/E176V/E190D/F33S/G103R/G107R/I119L/I121M/I306V/K335N/L105A/L180Q/L300P/N151K/N90K/Q86E/Q94H/R106L/R138H/R89G/T104I/T345S/V100E/W191G/Y123F); assay: Peptide-HLA binding assay (T2-A24 stabilization assay); conditions: T2-A24 cells, 10^-4 to 10^-9 M peptide, normalized MFI (to 10^-4 M Nef134-8), three independent experiments
Procedure: Peptide binding to HLA-A*24:02 was assessed by using a T2-A24 stabilization assay as previously described. Briefly, after incubation for 16 hours at 26°C under 5% CO2, 2 × 10^5 T2-A24 cells were incubated with 10^-4 to 10^-9 M peptides for 1 h at 4°C. After keeping at 37°C under 5% CO2 for 3 hours, the cells were stained with biotinylated anti-human HLA-A9 monoclonal antibody (One Lambda), and streptavidin-APC conjugates (BD Pharmingen). The mean fluorescence intensity (MFI) was measured by FACSCalibur (Becton Dickinson). In each experiment, MFI of samples was normalized by the MFI of 10^-4 M control peptide, Nef134-8([…]). Three independent experiments were performed.

[4] = system: Nef126-10-specific CTL clone I30-1; assay: Epitope recognition by CTL clone, peptide-pulsed 293FT-A24DRm-CY0 cells, IFN-γ ELISA; type: cell-based, human; conditions: 293FT-A24DRm-CY0 cells pulsed with serially diluted peptide (3^2 to 3^-6 μM), co-culture 18 to 24 h, three independent experiments
Procedure: (§3) The cells were washed twice with R10, then cultured with 1 × 10^6 autologous PBMCs and 4 × 10^6 irradiated (3300 rad) allogeneic PBMCs in R10. After 4 days, IL-2 was added to 50 U/ml and the cells were cultured for 2–3 weeks in R10/50. Peptide-specific CD8^+ T cells were enriched by MACS separation (Miltenyi) using tetramers. The sorted cells were cloned by limiting dilution to 3 or 10 cells/well in 96-well round-bottom tissue culture plates, and cultured with 10^5 irradiated allogeneic PBMCs in R10/50 containing 5 μg/ml PHA-L.
(§4) CTL-recognition of the epitopes was assessed by serially diluted peptides. On day 0, 293FT-A24DRm-CY0 cells were seeded onto 96-well Flat-bottom transparent plate (BD Falcon) so that the cultures become confluent on day 2. On day 2, each peptide was pulsed with concentrations from 3^2 to 3^-6 μM to the wells and incubated at 37°C under 5% CO2 for 1 h. Then CTLs (5,000 ~ 10,000 cells) were added and co-cultured at 37°C under 5% CO2 for 18 to 24 h. After the incubation, supernatants were harvested, and IFN-γ concentrations were quantified by Human IFN-γ ELISA Set (BD Bioscience). In each experiment, the IFN-γ value of samples was normalized to that of the highest wild type peptide concentration (9 μM). For example, each IFN-γ value of I30-1 CTL clone was divided by the value of the well pulsed with 9 μM Nef126-10(wt) peptide. Each assay was performed in duplicate and three independent experiments were conducted.

[5] = system: PBMCs; assay: Ex vivo IFN-γ ELISpot assay; type: cell-based, human; conditions: for correlation between magnitude of peptide-specific response and pVL: 24 IMSUT cohort patients harboring 133I/135F or 133T/135F, ex vivo IFN-γ ELISpot with frozen PBMCs, Spearman's rank correlation; for patients with peptide-specific response, plasma viruses 133T/135F: patients with 133T/135F viruses (n = 10)
Procedure: as §1, §2

[6] = system: Nef134-10-specific CTL clone H27-9; assay: Epitope recognition by CTL clone, peptide-pulsed 293FT-A24DRm-CY0 cells, IFN-γ ELISA; type: cell-based, human; conditions: 293FT-A24DRm-CY0 cells pulsed with serially diluted peptide (3^2 to 3^-6 μM), co-culture 18 to 24 h, three independent experiments
Procedure: as §3, §4

[7] = system: expanded PBMCs; assay: Functional avidity assay (IFN-γ ELISpot, limiting dilution of peptide); type: cell-based, human; conditions: nine individuals harboring 133T/135F, peptide 10^-5 to 10^-12 M, compared to Nef126-10(8T10F), Mann-Whitney U-test p < 0.05
Procedure: Basically, the assay was performed using the same procedure with IFN-γ ELISpot assay as described above. PBMCs were cultured for 2 to 3 weeks in R10/50 after anti-human CD3 antibody (BD Pharmingen) stimulation, and culture media were changed from R10/50 to R10 two days before use. PBMCs were incubated with peptides at concentrations from 10^-5 to 10^-12 M, and SFU was calculated. The functional avidity to peptide dilutions was determined as a 50% of sigmoidal dose (SD50) SFU.
All data visualization and statistical analyses were performed using GraphPad Prism (GraphPad Software, La Jolla, CA). Student’s t-test and Mann–Whitney U-test were used to compare the antigen presentation and functional avidity between two groups, respectively. Spearman rank correlation was used to calculate the correlation between peptide-specific response and pVL. Dose at 50% response in sigmoidal dose–response curves (SD50) was calculated by drawing sigmoidal dose–response curves. Time to mutational escape, defined as the time elapsed between estimated date of HIV-1 infection and the first appearance of a full or partial amino acid change consistent with the specific escape mutation of interest, was calculated using Kaplan-Meier (survival) methods.

Substance | response rate [1] [%] | binding to HLA-A*24:02 [3] | IFN-γ production by CTL clone I30-1 [4] | peptide-specific IFN-γ ELISpot response, latter time point [2] | also measured
Nef126-10: published HLA-A*24:02-restricted HIV-1 nef CTL epitope peptide, 10 amino acids from Nef126 (HXB2 numbering) (NYTPGPGVRY; UniProt P04601 126-135, looked up, fragment) | 50.0 | – | – | – | number of responders among patients harboring Nef135F ([1]; 35 patients harboring Nef135F): 23; peptide-specific response among patients with Nef135Y [1]: none of the eight patients; peptide-specific IFN-γ ELISpot response, earlier time point ([2]; 2000/9/4, plasma virus wild type around Nef126-10/Nef134-10): no Nef126-10-specific responses were observed
Nef126-10(8T10F): Nef126-10 peptide with threonine at 8th position (I133T) and F at position 10 (NYTPGPGTRF) | – | did not significantly affect epitope-HLA binding | strong responses at very low peptide concentration | robust responses | correlation between magnitude of peptide-specific response and pVL [5]: not; patients with peptide-specific response, plasma viruses 133I/135F ([5]; ex vivo IFN-γ ELISpot, PBMCs, patients with 133I/135F viruses (n = 4)): 0 of 4; patients with peptide-specific response, plasma viruses 133T/135F ([5]; ex vivo IFN-γ ELISpot, PBMCs): Nine out of 10
KYKLKHIVW [Gag28-9, reference compound] | 40.0 | – | Neither clone showed specificity | – | IFN-γ production by CTL clone H27-9 [6]: Neither clone showed specificity
Nef126-10(8I10F) (NYTPGPGIRF) | – | dramatically improved its binding | strong responses at very low peptide concentration | robust responses | correlation between magnitude of peptide-specific response and pVL [5]: inversely correlated with pVL; patients with peptide-specific response, plasma viruses 133T/135F ([5]; ex vivo IFN-γ ELISpot, PBMCs): 7 of 10; functional avidity (SD50) of peptide-specific CTL responses [7]: significantly higher avidities
Nef126-10(wt): wild-type Nef126-10 peptide with Y at the C-terminus (NYTPGPGIRY) | – | lowers the affinity | only at high concentrations | detected only at high peptide concentrations | –
Nef134-10: published HLA-A*24:02-restricted HIV-1 nef CTL epitope peptide, 10 amino acids from Nef134 (HXB2 numbering) (RYPLTFGWCY; UniProt P04601 134-143, looked up, fragment) | 80.4 | – | – | decreased but remained detectable | number of responders among patients harboring Nef135F ([1]; 35 patients harboring Nef135F): 28; response rate among patients harboring Nef135F ([1]; 35 patients harboring Nef135F): 80.0%; peptide-specific response among patients with Nef135Y [1]: all of them
VPLDKDFRKY [reference compound] | – | might not bind to HLA-A*24:02 | – | – | –
